In patent US20220048896A1, “PYRAZOLE COMPOUNDS SUBSTITUTED WITH HETEROARYL AND PHARMACEUTICAL USE THEREOF” (Japan Tobacco Inc., priority 2018, published 2022):

Legend:
Type in all cases: cell-based
[1] = system: Salmonella typhimurium TA98; assay: Ames test (reverse mutation test), strain TA98; conditions: for potential to induce reverse mutations, TA98: in the presence of S9 mix
Description: (§1) Metabolites 1 to 3 and Metabolites A to E were each tested herein. The purpose of this test is to evaluate the potential of each metabolite to induce reverse mutations in the standard strains of Salmonella typhimurium (TA98, TA1537, TA100, and TA1535) and Escherichia coli (WP2uvrA), in either the presence or absence of a rat liver metabolic activation system (S9 mix).
(§2) The solvent used herein was dimethyl sulfoxide (DMSO, 100 μL/plate).
(§3) The test was performed by the pre-incubation method with or without S9 mix. When the test was performed without S9 mix, sodium phosphate buffer solution (pH 7.4) was added.
(§4) 0.5 mL of S9 mix or 0.5 mL of 0.1 mol/L sodium phosphate buffer solution (pH 7.4), and 0.1 mL of the bacterial culture solution were added to a test tube containing 0.1 mL of the negative control formulation (DMSO alone), the metabolite, or the positive control formulation. The mixtures were pre-incubated at 37° C. for 20 minutes while shaking. After the pre-incubation period, 2 mL of top agar were added and the mixtures were vortex-mixed and seeded onto plates. Two plates per treatment were used. Each plate was incubated at 37±1° C. for 48 hours or more and the revertant colonies were counted. The mean number of revertant colonies for each treatment plate was then calculated. The presence or absence of growth inhibition due to any antibacterial effect of the test article and precipitation of the test article was observed grossly or under a stereomicroscope. […] Evaluation was based on mean values with no statistical comparisons being used.

[2] = system: Salmonella typhimurium TA1537; assay: Ames test (reverse mutation test), strain TA1537
Description: as §1, §2, §3, §4

[3] = system: Salmonella typhimurium TA100; assay: Ames test (reverse mutation test), strain TA100; conditions: in the presence of S9 mix
Description: as §1, §2, §3, §4

Escherichia coli WP2uvrA = assay: Ames test (reverse mutation test), strain WP2uvrA; conditions: in the absence of S9 mix
Description: as §1, §2, §3
(§5) 0.5 mL of S9 mix or 0.5 mL of 0.1 mol/L sodium phosphate buffer solution (pH 7.4), and 0.1 mL of the bacterial culture solution were added to a test tube containing 0.1 mL of the negative control formulation (DMSO alone), the metabolite, or the positive control formulation. The mixtures were pre-incubated at 37° C. for 20 minutes while shaking. After the pre-incubation period, 2 mL of top agar were added and the mixtures were vortex-mixed and seeded onto plates. Two plates per treatment were used. Each plate was incubated at 37±1° C. for 48 hours or more and the revertant colonies were counted. The mean number of revertant colonies for each treatment plate was then calculated. […]

[4] = system: Salmonella typhimurium TA1535; assay: Ames test (reverse mutation test), strain TA1535
Description: as §1, §2, §3, §5

| SMILES | Number of revertant colonies TA98 ([1]; S9 mix +, 6.9 μg/plate) | Number of revertant colonies TA98 ([1]; S9 mix +, 21 μg/plate) | Number of revertant colonies TA98 ([1]; S9 mix +, 62 μg/plate) | Number of revertant colonies TA98 ([1]; S9 mix +, 185 μg/plate) | Number of revertant colonies TA98 ([1]; S9 mix +, 556 μg/plate) | Number of revertant colonies TA98 ([1]; S9 mix +, 1667 μg/plate) | Number of revertant colonies TA98 ([1]; S9 mix +, 5000 μg/plate) | Number of revertant colonies TA98 ([1]; S9 mix −, 6.9 μg/plate) | Number of revertant colonies TA98 ([1]; S9 mix −, 21 μg/plate) | Number of revertant colonies TA98 ([1]; S9 mix −, 62 μg/plate) | Number of revertant colonies TA98 ([1]; S9 mix −, 185 μg/plate) | Number of revertant colonies TA98 ([1]; S9 mix −, 556 μg/plate) | Number of revertant colonies TA98 ([1]; S9 mix −, 1667 μg/plate) | Number of revertant colonies TA98 ([1]; S9 mix −, 5000 μg/plate) | potential to induce reverse mutations, TA1537 ([2]; in the presence of S9 mix) | potential to induce reverse mutations, TA100 [3] | potential to induce reverse mutations, TA98 [1] | also measured |
| --- | --- | --- | --- | --- | --- | --- | --- | --- | --- | --- | --- | --- | --- | --- | --- | --- | --- | --- |
| Nc1cc(-c2cc(F)cc(OC(F)(F)F)c2)n(-c2cncc(C(F)(F)F)c2)n1 [Metabolite 3] | 36 | 38 | 38 | 33 | 27 | 25 | 17 | 29 | 28 | 29 | 26 | 24 | 18 | 14 |  |  |  |  |
| Cc1ccc(-n2nc(N)cc2-c2cccc(OCC(F)(F)F)c2)cc1 [Metabolite C] |  |  |  |  |  |  |  |  |  |  |  |  |  |  | had potential to induce reverse mutations | had potential to induce reverse mutations | had potential to induce reverse mutations | potential to induce reverse mutations, WP2uvrA (Escherichia coli WP2uvrA): had potential to induce reverse mutations |
| Nc1cc(-c2cccc(OC(F)(F)F)c2)n(-c2cccc(F)c2)n1 [Metabolite D] |  |  |  |  |  |  |  |  |  |  |  |  |  |  |  | had potential to induce reverse mutations |  | potential to induce reverse mutations, TA1535 ([4]; in the absence of S9 mix): had potential to induce reverse mutations |
| CC(C)(OCc1cc(F)cc(-c2cc(N)nn2-c2ccc(F)cc2)c1)C(F)(F)F [Metabolite A, reference compound] |  |  |  |  |  |  |  |  |  |  |  |  |  |  | had potential to induce reverse mutations |  | had potential to induce reverse mutations |  |
| CC(C)(Oc1cc(F)cc(-c2cc(N)nn2-c2cnc(C(F)(F)F)nc2)c1)C(F)(F)F [Metabolite 1] | 37 | 39 | 40 | 40 | 34 | 27 | 21 | 32 | 32 | 31 | 29 | 30 | 15 | 7 |  |  |  |  |
| Nc1cc(-c2cc(F)cc(OC(F)(F)F)c2)n(-c2cncc(F)c2)n1 [Metabolite 2] | 35 | 37 | 35 | 36 | 22 | 20 | 16 | 30 | 30 | 28 | 28 | 12 | 9 | 7 |  |  |  |  |
| Cc1cccc(-n2nc(N)cc2-c2cccc(OC(F)(F)F)c2)c1 [Metabolite E] |  |  |  |  |  |  |  |  |  |  |  |  |  |  | had potential to induce reverse mutations | had potential to induce reverse mutations | had potential to induce reverse mutations |  |
| Nc1cc(-c2cccc(OCC(F)(F)F)c2)n(-c2ccc(F)cc2)n1 [Metabolite B] |  |  |  |  |  |  |  |  |  |  |  |  |  |  | had potential to induce reverse mutations | had potential to induce reverse mutations | had potential to induce reverse mutations | potential to induce reverse mutations, TA1535 ([4]; in the presence of S9 mix): had potential to induce reverse mutations; potential to induce reverse mutations, TA1537 ([2]; in the absence of S9 mix): had potential to induce reverse mutations |
